According to patent US20110059043A1, “CHEMICAL COMPOUNDS” (priority 2009, published 2011):

How the values were obtained:
[1] = target: T1, Recombinant HCV polymerase (BK strain) (Hepatitis C virus genotype 1b, UniProt P26663); experiment: HCV polymerase enzyme assay (radiometric [33P]-UTP incorporation); type: biochemical, HCV 1b
T1 construct: Recombinant HCV polymerase (BK strain) was expressed and purified from E. coli with a 21 amino acid C-terminal deletion; His6; made in house; host or cells: E. coli
Outline: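 His6-tagged BK-strain NS5B lacking 21 C-terminal residues, expressed in E. coli, at 100 nM in Tris pH 7.5 with 5 mM MgCl2 and 3% DMSO. Substrates: 125 nM biotin-U13:0.63 μg/ml PolyA, 200 nM UTP plus [33P]-UTP; 100 min at 25° C. Incorporation read by streptavidin capture; IC50 from 8-point curve.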

[2] = tested on: HCV replicon cells Huh 9B; experiment: HCV replicon assay (luciferase); type: cell-based; details: Hepatitis C virus, reduction of replicon level by 50% vs untreated cell control, 72 h
[3] = tested on: HCV replicon cells Huh 9B; type: cell-based; details: concentration reducing total cell area by 50% relative to DMSO controls; 72 h
Outline: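 Huh 9B replicon cells (luciferase-ubiquitin-neomycin fusion, EMCV-IRES-driven HCV polyprotein with adaptive mutations) were seeded from a 100,000 cells/ml suspension in G418-free medium, grown 24 h, then exposed to compound (dilutions at 1% DMSO) for 72 h at 37 °C. For toxicity, methylene blue staining was read at 620 nm and TD50 derived relative to DMSO controls.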

T1 sequence (P26663 2420-2989): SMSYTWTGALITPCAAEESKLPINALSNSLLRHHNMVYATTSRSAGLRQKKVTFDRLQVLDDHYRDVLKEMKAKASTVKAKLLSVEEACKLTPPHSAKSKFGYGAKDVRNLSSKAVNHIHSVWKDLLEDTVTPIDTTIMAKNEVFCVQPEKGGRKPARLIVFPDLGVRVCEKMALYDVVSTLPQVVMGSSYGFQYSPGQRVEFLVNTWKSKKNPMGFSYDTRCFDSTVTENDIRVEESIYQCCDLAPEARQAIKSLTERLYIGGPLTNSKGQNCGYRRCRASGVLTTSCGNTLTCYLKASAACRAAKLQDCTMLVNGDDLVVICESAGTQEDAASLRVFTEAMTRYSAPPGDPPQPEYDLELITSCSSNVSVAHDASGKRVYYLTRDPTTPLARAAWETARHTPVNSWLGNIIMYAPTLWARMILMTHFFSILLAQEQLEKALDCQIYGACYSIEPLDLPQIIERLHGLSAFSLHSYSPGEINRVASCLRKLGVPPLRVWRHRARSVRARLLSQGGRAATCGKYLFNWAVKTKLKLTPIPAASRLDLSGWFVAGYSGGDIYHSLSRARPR

Q: Which results are given for `COCCOc1nccc(C)c1C(=O)NC1N=C(c2c(Cl)cc(Cl)cc2Cl)c2ccccc2NC1=O` (stereo not drawn) [Example 40, 2-(2-Methoxyethoxy)-4-methyl-N-(2-oxo-5-(2,4,6-trichlorophenyl)-2,3-dihydro-1H-benzo[e][1,4]diazepin-3-yl)nicotinamide]?
A: IC50 [1]: 2960 nM; IC50 [2]: 856 nM; Replicon Assay Value TD50 [3]: 24.518 µM

Q: What does the source list for `COCCN(C)c1ncc(F)cc1C(=O)NC1N=C(c2c(Cl)cc(Cl)cc2Cl)c2ccccc2NC1=O` (stereo not drawn) [Example 41, 5-Fluoro-2-((2-methoxyethyl)(methyl)amino)-N-(2-oxo-5-(2,4,6-trichlorophenyl)-2,3-dihydro-1H-benzo[e][1,4]diazepin-3-yl)nicotinamide]?
A: IC50 [1]: 129 nM; IC50 [2]: 24.7 nM; Replicon Assay Value TD50 [3]: 24.146 µM

Q: Which results are given for `COCCNc1ncc(F)cc1C(=O)NC1N=C(c2c(Cl)cc(Cl)cc2Cl)c2ccccc2NC1=O` (stereo not drawn) [Example 42, 5-Fluoro-2-(2-methoxyethylamino)-N-(2-oxo-5-(2,4,6-trichlorophenyl)-2,3-dihydro-1H-benzo[e][1,4]diazepin-3-yl)nicotinamide]?
A: IC50 [1]: 969 nM; IC50 [2]: 2640 nM; Replicon Assay Value TD50 [3]: 17.784 µM

Q: `CCN(CCOC)c1ncc(F)cc1C(=O)NC1N=C(c2c(Cl)cc(Cl)cc2Cl)c2ccccc2NC1=O` (stereo not drawn) [Example 43, 2-(Ethyl(2-methoxyethyl)amino)-5-fluoro-N-(2-oxo-5-(2,4,6-trichlorophenyl)-2,3-dihydro-1H-benzo[e][1,4]diazepin-3-yl)nicotinamide] was tested. Which IC50 [1] did it give?
A: 204 nM

Q: What about the IC50 [2] of the same molecule?
A: 787 nM

Q: And the “Replicon Assay Value TD50” value [3]?
A: 23.97 µM

Q: For `COCCN(c1ncc(F)cc1C(=O)NC1N=C(c2c(Cl)cc(Cl)cc2Cl)c2ccccc2NC1=O)C(C)C` (stereo not drawn) [Example 44, 5-Fluoro-2-(isopropyl(2-methoxyethyl)amino)-N-(2-oxo-5-(2,4,6-trichlorophenyl)-2,3-dihydro-1H-benzo[e][1,4]diazepin-3-yl)nicotinamide], which IC50 [1] is on record?
A: 1330 nM

Q: And the IC50 [2]?
A: 2650 nM

Q: What about the “Replicon Assay Value TD50” value [3] of the same molecule?
A: 23.394 µM

Q: For `CCOCCN(CC)c1ncc(F)cc1C(=O)NC1N=C(c2c(Cl)cc(Cl)cc2Cl)c2ccccc2NC1=O` (stereo not drawn) [Example 45, 2-((2-Ethoxyethyl)(ethyl)amino)-5-fluoro-N-(2-oxo-5-(2,4,6-trichlorophenyl)-2,3-dihydro-1H-benzo[e][1,4]diazepin-3-yl)nicotinamide], which IC50 [1] is on record?
A: 176 nM

Q: And the IC50 [2]?
A: 752 nM

Q: And the “Replicon Assay Value TD50” value [3]?
A: 18.864 µM

Q: `CN(CCOCC1CC1)c1ncc(F)cc1C(=O)NC1N=C(c2c(Cl)cc(Cl)cc2Cl)c2ccccc2NC1=O` (stereo not drawn) [Example 46, 2-((2-(Cyclopropylmethoxy)ethyl)(methyl)amino)-5-fluoro-N-(2-oxo-5-(2,4,6-trichlorophenyl)-2,3-dihydro-1H-benzo[e][1,4]diazepin-3-yl)nicotinamide] was tested. Which IC50 [1] did it give?
A: 168 nM

Q: And the IC50 [2]?
A: 151 nM

Q: What about the “Replicon Assay Value TD50” value [3] of the same molecule?
A: 15.961 µM

Q: For `COCCOc1ccc(Cl)cc1C(=O)NC1N=C(c2c(Cl)cccc2Cl)c2ccccc2NC1=O` (stereo not drawn) [Example 47, 5-Chloro-N-(5-(2,6-dichlorophenyl)-2-oxo-2,3-dihydro-1H-benzo[e][1,4]diazepin-3-yl)-2-(2-methoxyethoxy)benzamide], which IC50 [1] is on record?
A: 149 nM

Q: What about the IC50 [2] of the same molecule?
A: 583 nM

Q: And the “Replicon Assay Value TD50” value [3]?
A: >25 µM

Q: Which IC50 [1] does the source give for `COCCOc1ccc(F)cc1C(=O)NC1N=C(c2c(Cl)cccc2Cl)c2ccccc2NC1=O` (stereo not drawn) [Example 48, N-(5-(2,6-Dichlorophenyl)-2-oxo-2,3-dihydro-1H-benzo[e][1,4]diazepin-3-yl)-5-fluoro-2-(2-methoxyethoxy)benzamide] here?
A: 155 nM

Q: What about the IC50 [2] of the same molecule?
A: 703 nM

Q: And the “Replicon Assay Value TD50” value [3]?
A: >25 µM

Q: What does the source list for `COCCOc1ccc(Cl)cc1C(=O)NC1N=C(c2c(Cl)cc(Cl)cc2CN2CCOCC2)c2ccccc2NC1=O` (stereo not drawn) [Example 49, 5-Chloro-N-(5-(2,4-dichloro-6-(morpholinomethyl)phenyl)-2-oxo-2,3-dihydro-1H-benzo[e][1,4]diazepin-3-yl)-2-(2-methoxyethoxy)benzamide]?
A: IC50 [1]: 829 nM; IC50 [2]: 167 nM; Replicon Assay Value TD50 [3]: 11.02 µM

Q: For `COCCOc1ccc(F)cc1C(=O)NC1N=C(c2c(Cl)cc(Cl)cc2CN2CCOCC2)c2ccccc2NC1=O` (stereo not drawn) [Example 50, N-(5-(2,4-Dichloro-6-(morpholinomethyl)phenyl)-2-oxo-2,3-dihydro-1H-benzo[e][1,4]diazepin-3-yl)-5-fluoro-2-(2-methoxyethoxy)benzamide], which IC50 [1] is on record?
A: 666 nM

Q: And the IC50 [2]?
A: 208 nM

Q: What about the “Replicon Assay Value TD50” value [3] of the same molecule?
A: 11.74 µM

Q: With `COCCOc1ncc(Cl)cc1C(=O)NC1N=C(c2c(Cl)cc(Cl)cc2CN2CCOCC2)c2ccccc2NC1=O` (stereo not drawn) [Example 51, 5-Chloro-N-(5-(2,4-dichloro-6-(morpholinomethyl)phenyl)-2-oxo-2,3-dihydro-1H-benzo[e][1,4]diazepin-3-yl)-2-(2-methoxyethoxy)nicotinamide] as the molecule, how does the IC50 [1] read?
A: 1230 nM

Q: What about the IC50 [2] of the same molecule?
A: 281 nM

Q: And the “Replicon Assay Value TD50” value [3]?
A: >25 µM

Q: Which IC50 [1] does the source give for `COCCOc1ncc(F)cc1C(=O)NC1N=C(c2c(Cl)cc(Cl)cc2CN2CCOCC2)c2ccccc2NC1=O` (stereo not drawn) [Example 52, N-(5-(2,4-Dichloro-6-(morpholinomethyl)phenyl)-2-oxo-2,3-dihydro-1H-benzo[e][1,4]diazepin-3-yl)-5-fluoro-2-(2-methoxyethoxy)nicotinamide] here?
A: 605 nM

Q: What about the IC50 [2] of the same molecule?
A: 129 nM

Q: And the “Replicon Assay Value TD50” value [3]?
A: 24.829 µM

Q: Which IC50 [1] does the source give for `COCCOc1ccc(F)cc1C(=O)NC1N=C(c2c(Cl)cc(Cl)cc2OC)c2ccccc2NC1=O` (stereo not drawn) [Example 53, N-(5-(2,4-Dichloro-6-methoxyphenyl)-2-oxo-2,3-dihydro-1H-benzo[e][1,4]diazepin-3-yl)-5-fluoro-2-(2-methoxyethoxy)benzamide] here?
A: 154 nM

Q: And the IC50 [2]?
A: 59.5 nM

Q: And the “Replicon Assay Value TD50” value [3]?
A: 24.827 µM

Q: For `CCOCCOc1ncc(F)cc1C(=O)NC1N=C(c2c(Cl)cc(Cl)cc2OC)c2ccccc2NC1=O` (stereo not drawn) [Example 55, N-(5-(2,4-Dichloro-6-methoxyphenyl)-2-oxo-2,3-dihydro-1H-benzo[e][1,4]diazepin-3-yl)-2-(2-ethoxyethoxy)-5-fluoronicotinamide], which IC50 [1] is on record?
A: 116 nM

Q: What about the IC50 [2] of the same molecule?
A: 27 nM

Q: What about the “Replicon Assay Value TD50” value [3] of the same molecule?
A: 18.821 µM

Q: `CCOc1cc(Cl)cc(Cl)c1C1=NC(NC(=O)c2cc(F)ccc2OCCOC)C(=O)Nc2ccccc21` (stereo not drawn) [Example 56, N-(5-(2,4-Dichloro-6-ethoxyphenyl)-2-oxo-2,3-dihydro-1H-benzo[e][1,4]diazepin-3-yl)-5-fluoro-2-(2-methoxyethoxy)benzamide] was tested. Which IC50 [1] did it give?
A: 154 nM

Q: What about the IC50 [2] of the same molecule?
A: 38.9 nM

Q: And the “Replicon Assay Value TD50” value [3]?
A: 11.349 µM

Q: Which results are given for `CCOc1cc(Cl)cc(Cl)c1C1=NC(NC(=O)c2cc(F)cnc2OCCOC)C(=O)Nc2ccccc21` (stereo not drawn) [Example 57, N-(5-(2,4-Dichloro-6-ethoxyphenyl)-2-oxo-2,3-dihydro-1H-benzo[e][1,4]diazepin-3-yl)-5-fluoro-2-(2-methoxyethoxy)nicotinamide]?
A: IC50 [1]: 72 nM; IC50 [2]: 20.3 nM; Replicon Assay Value TD50 [3]: 22.698 µM

Q: `CCOCCOc1ncc(F)cc1C(=O)NC1N=C(c2c(Cl)cc(Cl)cc2OCC)c2ccccc2NC1=O` (stereo not drawn) [Example 58, N-(5-(2,4-Dichloro-6-ethoxyphenyl)-2-oxo-2,3-dihydro-1H-benzo[e][1,4]diazepin-3-yl)-2-(2-ethoxyethoxy)-5-fluoronicotinamide] was tested. Which IC50 [1] did it give?
A: 69 nM

Q: And the IC50 [2]?
A: 9.9 nM

Q: What about the “Replicon Assay Value TD50” value [3] of the same molecule?
A: 11.875 µM
